The text below walks through data of patent US20230201207A1, “COMBINATION CANCER THERAPY USING N2-QUINOLINE OR ISOQUINOLINE SUBSTITUTED PURINE DERIVATIVES” (SHANGHAI HUAYU BIOTECHNOLOGY CO., LTD., priority 2020, published 2023).

The target in one data set is PI3K γ isoform (Homo sapiens, UniProt P48736). The experiment in a line: PI3K isoform inhibition, γ isoform (method of CN104513254A).
A short description of data set [1]: Body weight and survival of CT-26 WT tumor-bearing BALB/c mice. The class given is in vivo. The settings on record: for Average body weight: Anti-m-PD-1 10 mg/kg I.P., Compound A 40 mg/kg P.O. How it is done: (§1) CT-26 WT cells were maintained at 37° C. in 5% CO2 in RPMI 1640 medium (10-040-CV, Corning cellgro) supplemented with 10% FBS (10270-106, GIBCO) and used before the 10th subculture. At Day 0, 45 BALB/c female mice, 5-6 weeks old, were each subcutaneously injected with about 200.0 μL. of the CT-26 WT cell medium containing about 5×10^5 cells.
(§2) At Day 9, 32 tumor-bearing mice were randomly allocated to four groups according to their tumor volumes, 8 mice per group. The rest were subject to euthanasia.
(§3) The four groups of animals were administered with an anti-m-PD-1 antibody (BE0146, BioXcell) in PBS (21-040-CVR, BioXcell) at 1.0 mg/mL, Compound A in saline at 4.0 mg/mL, the anti-m-PD-1 antibody in combination with Compound A, and the control vehicle (saline), respectively, at doses shown in Table 1 below.
(§4) Mice were observed every day for their physical conditions and activities, and mice body weight and tumor volume were measured every Tuesday, Thursday and Sunday. The tumor volume (V) was calculated as (length×width^2)/2.
(§5) At Day 23, mice were subject to euthanasia, from which tumors were collected, weighed and photographed. Mice body weights, tumor sizes and tumor weights were analyzed using the t-test in SPSS, and group differences were deemed statistically significant when the p-value was 0.05 or less.

A further data set deals with PDGFR. Description: Inhibition of PDGFR phosphorylation. In kind it is biochemical. The text has this: (§6) FLT3 is a class III receptor tyrosine kinase and plays an important role in hematopoiesis and lymphocyte development. […] Wang et al found over 60% of 82 leukemia cell lines were FLT3 positive (Wang Y et al., (2006) Journal of Experimental Hematology 14(3): 446-449). […] Thus, the compounds of the disclosure with high inhibitory effect on FLT3 function may be good candidates for leukemia treatment.

A further data set has as its target PI3K β isoform (Homo sapiens, UniProt P42338).
The target of another data set is PI3K α isoform (Homo sapiens, UniProt P42336).
Sequence of PI3K α isoform (P42336 whole entry, canonical isoform): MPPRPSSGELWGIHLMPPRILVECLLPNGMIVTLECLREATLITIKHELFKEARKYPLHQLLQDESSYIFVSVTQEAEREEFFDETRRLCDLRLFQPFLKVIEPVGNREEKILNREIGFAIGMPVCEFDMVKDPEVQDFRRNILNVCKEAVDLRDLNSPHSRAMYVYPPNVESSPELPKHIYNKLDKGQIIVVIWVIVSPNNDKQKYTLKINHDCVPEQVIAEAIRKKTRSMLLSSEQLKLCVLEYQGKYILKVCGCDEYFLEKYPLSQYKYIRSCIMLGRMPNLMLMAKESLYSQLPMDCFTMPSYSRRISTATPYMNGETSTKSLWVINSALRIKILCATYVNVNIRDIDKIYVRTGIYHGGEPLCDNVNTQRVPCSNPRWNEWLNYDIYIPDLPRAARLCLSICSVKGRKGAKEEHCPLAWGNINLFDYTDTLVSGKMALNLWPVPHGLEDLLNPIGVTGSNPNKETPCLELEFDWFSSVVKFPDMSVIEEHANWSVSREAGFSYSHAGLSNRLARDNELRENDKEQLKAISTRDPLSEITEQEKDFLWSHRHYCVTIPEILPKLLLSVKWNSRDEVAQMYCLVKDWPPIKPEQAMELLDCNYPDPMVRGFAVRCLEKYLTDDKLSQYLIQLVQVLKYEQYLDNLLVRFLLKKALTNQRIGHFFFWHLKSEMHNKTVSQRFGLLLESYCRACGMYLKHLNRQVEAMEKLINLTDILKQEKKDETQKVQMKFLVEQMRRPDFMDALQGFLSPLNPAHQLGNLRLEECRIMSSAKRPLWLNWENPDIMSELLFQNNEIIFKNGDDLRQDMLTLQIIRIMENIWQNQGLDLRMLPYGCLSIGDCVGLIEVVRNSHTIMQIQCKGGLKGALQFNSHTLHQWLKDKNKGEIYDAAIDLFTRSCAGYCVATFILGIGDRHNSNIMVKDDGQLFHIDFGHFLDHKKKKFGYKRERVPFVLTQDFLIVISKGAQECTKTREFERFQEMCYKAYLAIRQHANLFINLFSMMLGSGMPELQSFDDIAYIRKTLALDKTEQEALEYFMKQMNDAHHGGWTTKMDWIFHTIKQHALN
Sequence of PI3K α isoform (P27986 whole entry partner, canonical isoform): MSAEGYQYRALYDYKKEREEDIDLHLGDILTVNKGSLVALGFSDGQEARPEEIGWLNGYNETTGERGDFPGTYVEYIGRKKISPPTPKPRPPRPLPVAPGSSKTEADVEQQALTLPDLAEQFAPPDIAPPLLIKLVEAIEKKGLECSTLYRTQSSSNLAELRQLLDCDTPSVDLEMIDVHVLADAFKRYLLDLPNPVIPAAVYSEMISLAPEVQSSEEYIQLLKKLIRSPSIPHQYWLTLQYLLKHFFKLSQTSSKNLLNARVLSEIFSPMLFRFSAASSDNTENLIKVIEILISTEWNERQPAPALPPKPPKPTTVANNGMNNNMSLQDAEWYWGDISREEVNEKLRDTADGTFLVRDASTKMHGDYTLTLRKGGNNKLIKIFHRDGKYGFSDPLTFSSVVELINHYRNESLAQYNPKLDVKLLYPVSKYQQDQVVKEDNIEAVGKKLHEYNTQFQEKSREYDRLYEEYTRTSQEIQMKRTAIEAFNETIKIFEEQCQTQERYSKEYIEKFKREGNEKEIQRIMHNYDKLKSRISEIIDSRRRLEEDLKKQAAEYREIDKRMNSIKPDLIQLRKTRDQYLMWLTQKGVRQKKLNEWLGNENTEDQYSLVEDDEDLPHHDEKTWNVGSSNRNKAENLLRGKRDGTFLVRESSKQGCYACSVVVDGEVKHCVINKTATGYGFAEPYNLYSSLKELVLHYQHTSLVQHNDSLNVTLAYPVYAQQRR
The subject of another data set is CT-26 WT cells. The experiment in a line: Anti-tumor effect in CT-26 WT tumor-bearing BALB/c mice. The class given is in vivo. The settings on record: for Average tumor size: Anti-m-PD-1 10 mg/kg I.P., Compound A 40 mg/kg P.O. The procedure: as §1, §2, §3, §4, §5
Tumor growth inhibition (TGI) was calculated based on tumor weight or tumor volume. Further, Zheng-Jun Jin's Q value was calculated using the formula Q=EA+B/(EA+EB−EA×EB) to assess the combined effect of the anti-PD-1 antibody and Compound A, wherein EA+B, EA, and EB referred to the TGIs of the combination therapy, anti-PD-1 administration and Compound A administration, respectively. A Q value higher than 1.15 indicated a synergistic or additive effect.

A further data set has as its system AKT. Description: Inhibition of AKT phosphorylation. The class given is biochemical.
Text: as §6

The conditions of data set [2]: human, in vivo; cited from earlier work.

Sequence of PI3K β isoform (P42338 whole entry, canonical isoform): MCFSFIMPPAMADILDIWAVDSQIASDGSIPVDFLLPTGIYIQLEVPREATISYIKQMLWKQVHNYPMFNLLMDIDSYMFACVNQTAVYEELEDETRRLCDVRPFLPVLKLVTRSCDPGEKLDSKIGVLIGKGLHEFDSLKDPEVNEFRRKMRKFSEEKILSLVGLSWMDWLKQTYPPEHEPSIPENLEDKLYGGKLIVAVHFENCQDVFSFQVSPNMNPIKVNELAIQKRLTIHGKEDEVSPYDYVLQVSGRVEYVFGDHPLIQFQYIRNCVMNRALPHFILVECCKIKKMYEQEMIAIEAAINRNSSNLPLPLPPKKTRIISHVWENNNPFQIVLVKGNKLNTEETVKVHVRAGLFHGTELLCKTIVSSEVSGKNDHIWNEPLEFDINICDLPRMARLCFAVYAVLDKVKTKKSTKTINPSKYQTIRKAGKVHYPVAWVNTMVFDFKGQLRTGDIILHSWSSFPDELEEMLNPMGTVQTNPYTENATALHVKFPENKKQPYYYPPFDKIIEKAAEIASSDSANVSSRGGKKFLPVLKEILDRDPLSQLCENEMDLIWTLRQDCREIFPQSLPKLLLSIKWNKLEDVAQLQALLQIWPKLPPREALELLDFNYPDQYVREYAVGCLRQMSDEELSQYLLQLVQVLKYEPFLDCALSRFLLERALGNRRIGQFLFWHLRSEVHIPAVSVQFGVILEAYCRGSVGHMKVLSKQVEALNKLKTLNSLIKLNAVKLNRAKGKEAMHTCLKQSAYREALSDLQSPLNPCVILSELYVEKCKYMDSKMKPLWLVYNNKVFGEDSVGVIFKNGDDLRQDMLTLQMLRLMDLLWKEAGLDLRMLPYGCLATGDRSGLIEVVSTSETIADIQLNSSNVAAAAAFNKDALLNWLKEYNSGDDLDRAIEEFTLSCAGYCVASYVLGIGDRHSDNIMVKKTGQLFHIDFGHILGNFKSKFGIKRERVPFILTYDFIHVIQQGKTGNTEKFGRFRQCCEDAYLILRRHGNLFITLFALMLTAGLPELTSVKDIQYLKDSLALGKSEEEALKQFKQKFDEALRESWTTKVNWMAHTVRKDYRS
Sequence of PI3K β isoform (P27986 whole entry partner, canonical isoform): as the sequence (P27986 whole entry partner, canonical isoform) above
Sequence of PI3K γ isoform (P48736 whole entry, canonical isoform): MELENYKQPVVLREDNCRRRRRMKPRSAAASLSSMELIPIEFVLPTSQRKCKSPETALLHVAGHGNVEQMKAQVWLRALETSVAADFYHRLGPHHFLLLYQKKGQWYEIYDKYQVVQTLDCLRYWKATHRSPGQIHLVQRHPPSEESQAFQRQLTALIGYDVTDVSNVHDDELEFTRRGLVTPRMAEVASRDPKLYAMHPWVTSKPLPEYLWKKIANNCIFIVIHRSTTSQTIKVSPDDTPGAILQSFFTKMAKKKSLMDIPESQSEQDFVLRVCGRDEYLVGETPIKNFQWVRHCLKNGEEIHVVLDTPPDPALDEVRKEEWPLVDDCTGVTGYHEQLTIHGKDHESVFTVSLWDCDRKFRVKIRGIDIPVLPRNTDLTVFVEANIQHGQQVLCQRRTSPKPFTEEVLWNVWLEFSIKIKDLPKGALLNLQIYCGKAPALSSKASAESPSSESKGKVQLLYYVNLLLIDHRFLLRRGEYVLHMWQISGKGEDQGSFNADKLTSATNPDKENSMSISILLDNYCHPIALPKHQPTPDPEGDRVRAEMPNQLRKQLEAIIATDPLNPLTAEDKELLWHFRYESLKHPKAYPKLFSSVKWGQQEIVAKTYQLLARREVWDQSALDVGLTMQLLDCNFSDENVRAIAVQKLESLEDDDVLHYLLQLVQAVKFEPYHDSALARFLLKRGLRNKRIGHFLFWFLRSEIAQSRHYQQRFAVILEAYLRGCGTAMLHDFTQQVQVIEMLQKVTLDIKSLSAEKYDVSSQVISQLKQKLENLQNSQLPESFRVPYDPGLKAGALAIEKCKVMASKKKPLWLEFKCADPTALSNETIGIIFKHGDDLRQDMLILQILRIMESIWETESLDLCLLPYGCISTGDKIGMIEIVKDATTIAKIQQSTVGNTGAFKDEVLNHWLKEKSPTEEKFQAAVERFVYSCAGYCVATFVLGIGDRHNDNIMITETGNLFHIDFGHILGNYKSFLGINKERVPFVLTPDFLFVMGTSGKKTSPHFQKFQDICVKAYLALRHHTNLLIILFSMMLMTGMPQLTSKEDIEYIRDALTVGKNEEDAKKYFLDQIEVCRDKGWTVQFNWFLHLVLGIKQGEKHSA

In the case of `c1cnc2ccc(Nc3nc(NC4CC4)c4nc[nH]c4n3)cc2c1` [Compound A], on PI3K γ isoform, the “EC50, PI3K γ isoform inhibition” value was “μM level”. In addition, the Average body weight was determined as 15.59 g in data set [1] (Day 9 (allocation)); 15.16 g in data set [1] (Day 10); 15.86 g in data set [1] (Day 12); 15.91 g in data set [1] (Day 14); 16.46 g in data set [1] (Day 16); 16.75 g in data set [1] (Day 18). For the same compound, the figures for the Average body weight in data set [1] (Day 20), in data set [1] (Day 22) and in data set [1] (Day 23) were 17.01 g, 17.72 g and 18.15 g, respectively. Also, the “Mice weight with the tumor weight deducted” value in data set [1] (Day 23) turned out to be 16.22 g. For the same compound, the EC50 with PDGFR was approximately 1000 nM; in the data set with AKT it was approximately 100 nM. Besides, the “EC50, PI3K β isoform inhibition” value on PI3K β isoform is “μM level”. Further, at PI3K α isoform, the “EC50, PI3K α isoform inhibition” value is reported as “μM level”. Also, the Average tumor size with CT-26 WT cells (Day 9 (allocation)) is on record as 176.94 mm^3; with CT-26 WT cells (Day 10), 272.49 mm^3; in the data set with CT-26 WT cells (Day 12), 492.26 mm^3; in the data set on CT-26 WT cells (Day 14) it was 672.51 mm^3; with CT-26 WT cells (Day 16), 876.22 mm^3; with CT-26 WT cells (Day 18) it was 1099.45 mm^3. For the same compound, the Average tumor size was determined as 1348.89 mm^3 with CT-26 WT cells (Day 20), 1698.25 mm^3 in the data set on CT-26 WT cells (Day 22) and 1870.89 mm^3 in the data set with CT-26 WT cells (Day 23). Further, the “Tumor volume based TGI” value in the data set with CT-26 WT cells (Day 23) is reported as 19.35%. For the same compound, the “Tumor weight based TGI” value in the data set with CT-26 WT cells (Day 23) amounted to 31.71%. The “Tumor weight, Average” value in the data set on CT-26 WT cells (group average at Day 23, 8 mice) is recorded as 1.93 g. Moreover, in the data set on CT-26 WT cells (individual tumor isolated at Day 23, Mouse no. 1), the “Tumor weight, Mouse no. 1” value worked out at 1.14 g. Moreover, the “Tumor weight, Mouse no. 2” value in the data set on CT-26 WT cells (individual tumor isolated at Day 23, Mouse no. 2) came out at 2.11 g. For the same compound, the “Tumor weight, Mouse no. 3” value in the data set on CT-26 WT cells (individual tumor isolated at Day 23, Mouse no. 3) worked out at 2.11 g. The “Tumor weight, Mouse no. 4” value with CT-26 WT cells (individual tumor isolated at Day 23, Mouse no. 4) amounted to 0.89 g. Further, the “Tumor weight, Mouse no. 5” value with CT-26 WT cells (individual tumor isolated at Day 23, Mouse no. 5) was found to be 1.68 g. Further, the “Tumor weight, Mouse no. 6” value with CT-26 WT cells (individual tumor isolated at Day 23, Mouse no. 6) is recorded as 2.16 g. Also, the “Tumor weight, Mouse no. 7” value in the data set on CT-26 WT cells (individual tumor isolated at Day 23, Mouse no. 7) turned out to be 2.73 g. Further, the “Tumor weight, Mouse no. 8” value in the data set on CT-26 WT cells (individual tumor isolated at Day 23, Mouse no. 8) came out at 2.64 g.
Regarding Ipilimumab, in data set [2], the “Patients who experienced immune-related adverse effects” value is recorded as 64%.
